Experimental data as given in patent US10765651B2, “Co-crystals of substituted glycine and uses thereof” (SyneuRx International (Taiwan) Corp., priority 2017, dated 2020).
≈ marks a conversion by molar mass, not a printed value. Where two headings read alike, the source gives them in different places.

Tests used:
[1] = physchem; conditions: water, thermodynamic from solid
[2] = Hygroscopicity test, condition 2 (humidity chamber, weight change); assay type: physicochemical; conditions: for Weight change (%): dry before (change on drying to 0 hr weight)
[3] = Hygroscopicity test, condition 3 (dynamic vapor sorption, 0 to 90 to 0% RH); assay type: physicochemical; conditions: DVS, 25° C.
Protocol: Measurement were taken from 0 to 90 to 0% RH at 25° C. with 10% RH per step with equilibration set to dm/dt+0.01%/min for 10 min or 180 min/step.

[4] = 70-75% RH, room temperature, 3 days
[5] = DVS, 0 to 70 to 0% RH, 25° C.
Protocol: Measurement were taken from 0 to 70 to 0% RH at 25° C. with 10% RH per step with equilibration set to dm/dt+0.01%/min for 10 min or 180 min/step.

CNCC(=O)O [N-MG, N-methylglycine, reference compound]
solubility [1]: 660 mg/mL (≈ 7410 mM)
Weight ([2]; 30° C., 75% RH, 0 hr): 0.1375 g
Outward (appearance) ([2]; 30° C., 75% RH, 1 hr): 90%
Weight ([2]; 30° C., 75% RH, 1 hr): 0.1585 g
Weight change (%), water absorbed ([2]; 30° C., 75% RH, 1 hr): (+15.3%)
Weight ([2]; 30° C., 75% RH, 2 hr): 0.1942 g
Weight change (%), water absorbed ([2]; 30° C., 75% RH, 2 hr): (+41.2%)
Outward (appearance) ([2]; 30° C., 75% RH, 3 hr): Liquid
Weight ([2]; 30° C., 75% RH, 3 hr): 0.2146 g
Weight change (%), water absorbed ([2]; 30° C., 75% RH, 3 hr): (+56.1%)
Weight ([2]; 30° C., 75% RH, 5 hr): 0.2403 g
Weight change (%), water absorbed ([2]; 30° C., 75% RH, 5 hr): (+74.8%)
Weight ([2]; 30° C., 75% RH, 24 hr): 0.2884 g
Weight change (%), water absorbed ([2]; 30° C., 75% RH, 24 hr): (+109.7%)
Weight ([2]; 30° C., 75% RH, 48 hr): 0.2885 g
Weight change (%), water absorbed ([2]; 30° C., 75% RH, 48 hr): (+109.8%)
Weight ([2]; 30° C., 75% RH, 72 hr): 0.2885 g
Weight change (%), water absorbed ([2]; 30° C., 75% RH, 72 hr): (+109.8%)
Outward (appearance) ([2]; dry before): White
Weight ([2]; dry before): 0.1375 g
Weight change (%) [2]: (−0%)
Change In Mass (%) ([3]; RH 0%): 0.0%
Change In Mass (%) ([3]; RH 10%): 0.0%
Change In Mass (%) ([3]; RH 20%): 0.0%
Change In Mass (%) ([3]; RH 30%): 0.0%
Change In Mass (%) ([3]; RH 40%): 0.0%
Change In Mass (%) ([3]; RH 50%): 0.0%
Change In Mass (%) ([3]; RH 60%): 0.0%
Change In Mass (%) ([3]; RH 70%): 38.6%
Change In Mass (%) ([3]; RH 80%): 87.4%
Change In Mass (%) ([3]; RH 90%): 130.9%

CNCC(=O)O.O=C(O)C(O)C(O)C(=O)O [N-MG/L-TA = 1/1, N-methylglycine:L-tartaric acid (1:1) co-crystal]
Appearance after exposure to high humidity [4]: remained as fine white powder
Hygroscopicity comparison [4]: much less hygroscopic than the 2:1 co-crystal
Weight ([2]; 30° C., 75% RH, 0 hr): 0.1432 g
Weight ([2]; 30° C., 75% RH, 1 hr): 0.1437 g
Weight change (%), water absorbed ([2]; 30° C., 75% RH, 1 hr): (+0.3%)
Weight ([2]; 30° C., 75% RH, 2 hr): 0.1437 g
Weight change (%), water absorbed ([2]; 30° C., 75% RH, 2 hr): (+0.3%)
Weight ([2]; 30° C., 75% RH, 3 hr): 0.1439 g
Weight change (%), water absorbed ([2]; 30° C., 75% RH, 3 hr): (+0.4%)
Weight ([2]; 30° C., 75% RH, 5 hr): 0.1439 g
Weight change (%), water absorbed ([2]; 30° C., 75% RH, 5 hr): (+0.4%)
Weight change (%), water absorbed ([2]; 30° C., 75% RH, 5 hr, listed as N-methylglycine:L-tartaric acid co-crystal): 0.4%
Weight ([2]; 30° C., 75% RH, 24 hr): 0.1440 g
Weight change (%), water absorbed ([2]; 30° C., 75% RH, 24 hr): (+0.5%)
Weight ([2]; 30° C., 75% RH, 48 hr): 0.1440 g
Weight change (%), water absorbed ([2]; 30° C., 75% RH, 48 hr): (+0.5%)
Outward (appearance) ([2]; 30° C., 75% RH, 72 hr): remained as white powder
Weight ([2]; 30° C., 75% RH, 72 hr): 0.1441 g
Weight change (%), water absorbed ([2]; 30° C., 75% RH, 72 hr): (+0.6%)
Weight change (%), water absorbed ([2]; 30° C., 75% RH, 72 hr, listed as 1:1 N-methylglycine:L-tartaric acid co-crystal): 0.6%
Hygroscopicity comparison ([2]; 30° C., 75% RH, listed as 1:1 N-methylglycine:L-tartaric acid co-crystal): much less hygroscopic than 2:1 N-methylglycine:L-tartaric acid co-crystal
Outward (appearance) ([2]; dry before): White
Weight ([2]; dry before): 0.1434 g
Weight change (%) [2]: (−0.1%)
Hygroscopicity comparison [5]: less hygroscopic than N-methylgycine or L-tartaric acid individually
